Results taken from US10682408B2, “Localized immunosuppression of allografts for peripheral nerve repair” (UNIVERSITY OF WYOMING, priority 2016, dated 2020).

System: DRGs, motor neurons, and Schwann cells
Assay: Alamar blue viability assay of PN cells cultured 72 hours with immunosuppressive drugs
Conditions: 72 hours culture, max 1% DMSO
Procedure: It is contemplated that delivery of immunosuppressive agents function within a favorable therapeutic window. PNs are comprised of three major nervous system cell types, motor neurons, sensory neurons, and Schwann cells. […] FIG. 1B illustrates data regarding the toxicity of tacrolimus to DRGs, motor neurons, and Schwann cells. FIG. 1C illustrates data regarding the toxicity of prednisolone to DRGs, motor neurons, and Schwann cells.
Cells (DRGs, motor neurons, and Schwann cells) were cultured for 72 hours in various concentration of the immunosuppressive drugs and viability was evaluated using the Alamar blue viability assay. ISV's were diluted into media using a maximum of 1% dimethylsulfoxide (DMSO).
Biological material from Sprague Dawley (GFP− and GFP+) and Lewis rats, without any pathological conditions, were utilized to determine the PN allograft methods and materials described herein. Lewis rats were obtained from Charles River Laboratories (Wilmington, Mass.) and Sprague Dawley rats were obtained from Rat Resource and Research Center (Columbia, Mo.). Alzet osmotic pumps (model 1004), commercially available from DURECT Corporation, Cupertino, Calif., were utilized for delivery of immunosuppressive agents to PN allografts.

Question: `C[C@]12C=CC(=O)C=C1CC[C@@H]1[C@@H]2[C@@H](O)C[C@@]2(C)[C@H]1CC[C@]2(O)C(=O)CO` [prednisolone] was tested. Which “dose tolerated by the cells (up to)” value did it give?
Answer: up to 200 μM
